O=C1NC(=O)c2ccccc21
solubility (mole fraction)
Conditions	in isopropanol	in methanol	in n-butanol	in n-propanol	in toluene
283.15 K	0.00159	0.00129	0.00166	0.00156	0.000253
285.65 K	0.00175	0.00142	0.00185	0.00173	0.000295
288.15 K	0.00198	0.00162	0.00203	0.00188	0.000348
290.65 K	0.0022	0.00183	0.00221	0.00203	0.000401
293.15 K	0.00247	0.0021	0.00243	0.00222	0.000456
295.65 K	0.0027	0.00236	0.00266	0.00242	0.000514
298.15 K	0.00298	0.0026	0.00285	0.00263	0.000577
300.15 K	0.0033	0.00288	0.00308	0.00282	0.000624
303.15 K	0.00365	0.00317	0.00336	0.00308	0.000694
305.65 K	0.00402	0.00346	0.00362	0.00339	0.000756
308.15 K	0.00438	0.00373	0.00393	0.00369	0.000828
310.65 K	0.00479	0.00405	0.00424	0.00399	0.0009
313.15 K	0.00523	0.00445	0.00456	0.0043	0.000969
315.65 K	0.00575	0.00483	0.0049	0.00466	0.00105
318.15 K	0.00632	0.00525	0.0054	0.005	0.00114
